Columns and labels:
Format in all cases: ADME
Liver microsome [1] = experiment: (§1) Drug metabolism in human liver microsomes assessed as (3R,3aS,4S,4aR,7R,8aR,9aR)-7-amino-4-((E)-2-(5-(3-fluorophenyl)pyridin-2-yl)vinyl)-3-methyldecahydronaphtho[2,3-c]furan-1(3H)-one formation at 10 to 25 uM after 120 mins by LC-MS/MS analysis in presence of quinidine; conditions: 2 h
[2] = Drug metabolism in human intestine microsomes assessed as ((4aR,6R)-9-{2-[(1R,4S)-5-((S)-3-Fluoro-phenyl)-pyridin-2-yl]-vinyl}-1-methyl-3-oxo-dodecahydro-naphtho[2,3-c]furan-6-yl)-carbamic acid(R)-2-hydroxy-ethyl ester formation by LC-MS/MS analysis in presence of 100 uM astemizole
Liver microsome [3] = experiment: Drug metabolism in human liver microsomes overexpressing CYP3A4 assessed as (3R,3aS,4S,4aR,7R,8aR,9aR)-7-amino-4-((E)-2-(5-(3-fluorophenyl)pyridin-2-yl)vinyl)-3-methyldecahydronaphtho[2,3-c]furan-1(3H)-one formation at 25 uM after 120 mins by LC-MS/MS analysis in presence of ketoconazole; conditions: 2 h
Liver microsome [4] = experiment: as §1, with “CYP3A4-specific inhibitory monoclonal antibody” for “quinidine”; conditions: 2 h
[5] = Drug level in human intestine microsomes treated with 25 uM vorapaxar after 120 mins by LC-MS/MS analysis in presence of NADPH; conditions: 2 h
Cytochrome P450 2A6 = Cytochrome P450 2A6 (Homo sapiens, UniProt P11509); experiment: Activity of human recombinant CYP2A6 assessed as enzyme-mediated drug metabolism treated with 25 uM vorapaxar after 120 mins by LC-MS/MS analysis in presence of NADPH; conditions: 2 h
Sequence of Cytochrome P450 2A6 (P11509 whole entry): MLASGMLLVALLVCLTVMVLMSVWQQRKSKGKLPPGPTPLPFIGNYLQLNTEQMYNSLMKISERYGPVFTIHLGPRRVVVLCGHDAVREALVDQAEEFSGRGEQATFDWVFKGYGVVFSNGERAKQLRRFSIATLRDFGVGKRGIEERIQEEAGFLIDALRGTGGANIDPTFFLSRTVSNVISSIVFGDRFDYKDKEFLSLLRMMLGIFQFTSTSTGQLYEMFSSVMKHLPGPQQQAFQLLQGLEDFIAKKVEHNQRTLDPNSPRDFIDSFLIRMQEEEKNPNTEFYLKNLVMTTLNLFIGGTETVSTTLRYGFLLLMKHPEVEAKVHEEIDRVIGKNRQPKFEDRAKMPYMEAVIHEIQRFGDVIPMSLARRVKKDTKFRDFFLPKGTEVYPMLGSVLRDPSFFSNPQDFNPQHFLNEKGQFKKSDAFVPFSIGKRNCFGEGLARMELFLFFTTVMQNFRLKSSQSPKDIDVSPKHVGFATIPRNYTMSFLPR

Cytochrome P450 4F2 = Cytochrome P450 4F2 (Homo sapiens, UniProt P78329); experiment: Activity of human recombinant CYP4F2 assessed as enzyme-mediated drug metabolism treated with 25 uM vorapaxar after 120 mins by LC-MS/MS analysis in presence of NADPH; conditions: 2 h
Sequence of Cytochrome P450 4F2 (P78329 whole entry): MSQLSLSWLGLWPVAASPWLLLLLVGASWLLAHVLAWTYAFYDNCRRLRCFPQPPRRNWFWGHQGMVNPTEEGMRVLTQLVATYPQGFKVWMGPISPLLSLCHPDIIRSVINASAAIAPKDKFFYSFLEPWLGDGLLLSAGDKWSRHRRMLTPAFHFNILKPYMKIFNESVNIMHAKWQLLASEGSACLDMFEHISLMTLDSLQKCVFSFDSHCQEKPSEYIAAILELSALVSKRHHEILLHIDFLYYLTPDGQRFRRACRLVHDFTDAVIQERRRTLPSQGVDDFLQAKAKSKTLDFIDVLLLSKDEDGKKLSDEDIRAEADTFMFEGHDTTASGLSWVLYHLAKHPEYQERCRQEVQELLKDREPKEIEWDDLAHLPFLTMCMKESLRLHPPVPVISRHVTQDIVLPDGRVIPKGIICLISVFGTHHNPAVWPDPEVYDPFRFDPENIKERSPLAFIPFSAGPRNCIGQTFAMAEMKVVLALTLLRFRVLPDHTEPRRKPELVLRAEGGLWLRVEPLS

Cytochrome P450 2C8 = Cytochrome P450 2C8 (Homo sapiens, UniProt P10632); experiment: Activity of human recombinant CYP2C8 assessed as enzyme-mediated 2-hydroxyethyl (1R,3aR,4aR,6R,8aR,9S,9aS)-9-((E)-2-(5-(3-fluorophenyl)pyridin-2-yl)vinyl)-1-methyl-3-oxododecahydronaphtho[2,3-c]furan-6-ylcarbamate formation at 25 uM after 120 mins by LC-MS/MS analysis in presence of NADPH; conditions: 2 h
Sequence of Cytochrome P450 2C8 (P10632 whole entry): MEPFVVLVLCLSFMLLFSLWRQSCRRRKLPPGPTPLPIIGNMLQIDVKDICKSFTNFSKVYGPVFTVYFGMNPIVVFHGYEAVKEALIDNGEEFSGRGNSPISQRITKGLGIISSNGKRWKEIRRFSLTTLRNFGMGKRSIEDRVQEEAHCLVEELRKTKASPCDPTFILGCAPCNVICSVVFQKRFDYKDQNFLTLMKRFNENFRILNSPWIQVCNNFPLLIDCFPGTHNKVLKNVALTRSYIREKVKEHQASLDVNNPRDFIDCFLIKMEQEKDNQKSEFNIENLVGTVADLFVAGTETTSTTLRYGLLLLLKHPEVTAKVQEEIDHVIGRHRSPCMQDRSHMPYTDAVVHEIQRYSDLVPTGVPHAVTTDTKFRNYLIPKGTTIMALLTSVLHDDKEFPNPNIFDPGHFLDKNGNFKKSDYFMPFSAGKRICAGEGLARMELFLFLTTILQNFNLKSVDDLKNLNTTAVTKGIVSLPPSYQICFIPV

Liver microsome [6] = experiment: Drug metabolism in human liver microsomes assessed as (3R,3aS,4S,4aR,7R,8aR,9aR)-7-amino-4-((E)-2-(5-(3-fluorophenyl)pyridin-2-yl)vinyl)-3-methyldecahydronaphtho[2,3-c]furan-1(3H)-one formation after 120 mins by LC-MS/MS analysis; conditions: 2 h
Cytochrome P450 2B6 = molecular target: T1, Cytochrome P450 2B6 (Homo sapiens, UniProt P20813); experiment: Activity of human recombinant CYP2B6 assessed as enzyme-mediated drug metabolism at 10 uM after 120 mins by LC-MS/MS analysis; conditions: 2 h
T1 sequence (P20813 whole entry): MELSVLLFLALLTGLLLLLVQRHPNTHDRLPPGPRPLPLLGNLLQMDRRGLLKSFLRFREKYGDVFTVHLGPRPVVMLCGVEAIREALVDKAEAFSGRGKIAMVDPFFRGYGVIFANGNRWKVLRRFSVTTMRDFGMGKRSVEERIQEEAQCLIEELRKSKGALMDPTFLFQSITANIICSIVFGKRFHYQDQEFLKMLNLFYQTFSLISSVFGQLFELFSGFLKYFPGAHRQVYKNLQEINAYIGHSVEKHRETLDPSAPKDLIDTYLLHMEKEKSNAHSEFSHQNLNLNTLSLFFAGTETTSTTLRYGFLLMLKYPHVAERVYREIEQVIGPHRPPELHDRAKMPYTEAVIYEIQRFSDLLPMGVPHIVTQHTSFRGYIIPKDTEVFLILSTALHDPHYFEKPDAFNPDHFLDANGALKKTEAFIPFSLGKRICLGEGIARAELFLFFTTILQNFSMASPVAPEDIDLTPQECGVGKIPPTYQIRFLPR

Cytochrome P450 1A2 = molecular target: T2, Cytochrome P450 1A2 (Homo sapiens, UniProt P05177); experiment: Activity of human recombinant CYP1A2 assessed as enzyme-mediated drug metabolism at 10 uM after 120 mins by LC-MS/MS analysis; conditions: 2 h
T2 sequence (P05177 whole entry): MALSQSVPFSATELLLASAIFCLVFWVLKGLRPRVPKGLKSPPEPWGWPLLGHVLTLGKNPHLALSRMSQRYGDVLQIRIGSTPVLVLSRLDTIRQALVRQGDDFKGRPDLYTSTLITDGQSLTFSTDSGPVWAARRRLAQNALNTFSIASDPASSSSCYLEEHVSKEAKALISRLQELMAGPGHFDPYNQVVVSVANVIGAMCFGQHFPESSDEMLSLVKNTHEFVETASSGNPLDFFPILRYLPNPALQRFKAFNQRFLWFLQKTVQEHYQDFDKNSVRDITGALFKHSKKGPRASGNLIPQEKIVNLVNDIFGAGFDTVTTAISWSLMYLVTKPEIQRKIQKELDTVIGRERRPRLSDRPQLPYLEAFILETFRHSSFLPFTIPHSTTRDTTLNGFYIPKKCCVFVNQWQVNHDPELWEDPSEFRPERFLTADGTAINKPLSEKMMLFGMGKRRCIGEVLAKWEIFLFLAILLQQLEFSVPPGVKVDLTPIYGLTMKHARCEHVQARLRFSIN

Liver microsome [7] = experiment: Drug metabolism in human liver microsomes assessed as (3R,3aS,4S,4aR,7R,8aR,9aR)-7-amino-4-((E)-2-(5-(3-fluorophenyl)pyridin-2-yl)vinyl)-3-methyldecahydronaphtho[2,3-c]furan-1(3H)-one formation at 10 uM after 120 mins by LC-MS/MS analysis; conditions: 2 h
Cytochrome P450 2C19 = Cytochrome P450 2C19 (Homo sapiens, UniProt P33261); experiment: Activity of human recombinant CYP2C19 assessed as enzyme-mediated (3R,3aS,4S,4aR,7R,8aR,9aR)-7-amino-4-((E)-2-(5-(3-fluorophenyl)pyridin-2-yl)vinyl)-3-methyldecahydronaphtho[2,3-c]furan-1(3H)-one formation at 25 uM after 120 mins by LC-MS/MS analysis in presence of NADPH; conditions: 2 h
Sequence of Cytochrome P450 2C19 (P33261 whole entry): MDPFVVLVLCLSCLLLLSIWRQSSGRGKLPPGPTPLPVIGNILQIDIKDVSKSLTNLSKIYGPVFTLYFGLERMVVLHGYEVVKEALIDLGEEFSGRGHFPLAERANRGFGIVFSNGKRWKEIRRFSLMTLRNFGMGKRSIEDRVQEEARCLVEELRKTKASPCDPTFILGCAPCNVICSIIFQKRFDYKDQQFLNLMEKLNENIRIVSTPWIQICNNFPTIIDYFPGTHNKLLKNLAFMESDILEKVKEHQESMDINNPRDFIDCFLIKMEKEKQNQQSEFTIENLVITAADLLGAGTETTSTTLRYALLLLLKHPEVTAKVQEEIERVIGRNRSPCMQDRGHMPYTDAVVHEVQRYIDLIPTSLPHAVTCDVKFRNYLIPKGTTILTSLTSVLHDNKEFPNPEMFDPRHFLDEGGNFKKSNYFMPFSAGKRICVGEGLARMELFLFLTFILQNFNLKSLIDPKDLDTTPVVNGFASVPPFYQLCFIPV

Cytochrome P450 4A11 = Cytochrome P450 4A11 (Homo sapiens, UniProt Q02928); experiment: Activity of human recombinant CYP4A11 assessed as enzyme-mediated 2-hydroxyethyl (1R,3aR,4aR,6R,8aR,9S,9aS)-9-((E)-2-(5-(3-fluorophenyl)pyridin-2-yl)vinyl)-1-methyl-3-oxododecahydronaphtho[2,3-c]furan-6-ylcarbamate formation at 25 uM after 120 mins by LC-MS/MS analysis in presence of NADPH; conditions: 2 h
Sequence of Cytochrome P450 4A11 (Q02928 whole entry): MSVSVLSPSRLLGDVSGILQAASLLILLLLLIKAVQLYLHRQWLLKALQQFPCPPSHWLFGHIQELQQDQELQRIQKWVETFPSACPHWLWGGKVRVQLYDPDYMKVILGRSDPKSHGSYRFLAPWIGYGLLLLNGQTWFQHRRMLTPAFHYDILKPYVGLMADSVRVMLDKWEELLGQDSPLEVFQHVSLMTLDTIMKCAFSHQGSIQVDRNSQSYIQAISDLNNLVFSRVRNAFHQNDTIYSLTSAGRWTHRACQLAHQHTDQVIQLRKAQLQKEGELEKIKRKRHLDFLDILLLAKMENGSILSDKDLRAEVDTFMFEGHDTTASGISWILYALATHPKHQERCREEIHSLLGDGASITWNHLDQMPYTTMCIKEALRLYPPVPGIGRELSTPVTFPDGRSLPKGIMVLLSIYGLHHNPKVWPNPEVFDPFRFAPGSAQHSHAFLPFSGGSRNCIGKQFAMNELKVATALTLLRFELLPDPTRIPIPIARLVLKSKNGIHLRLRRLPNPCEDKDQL

Cytochrome P450 1B1 = Cytochrome P450 1B1 (Homo sapiens, UniProt Q16678); experiment: Activity of human recombinant CYP1B1 assessed as enzyme-mediated 2-hydroxyethyl (1R,3aR,4aR,6R,8aR,9S,9aS)-9-((E)-2-(5-(3-fluorophenyl)pyridin-2-yl)vinyl)-1-methyl-3-oxododecahydronaphtho[2,3-c]furan-6-ylcarbamate formation at 25 uM after 120 mins by LC-MS/MS analysis in presence of NADPH; conditions: 2 h
Sequence of Cytochrome P450 1B1 (Q16678 whole entry): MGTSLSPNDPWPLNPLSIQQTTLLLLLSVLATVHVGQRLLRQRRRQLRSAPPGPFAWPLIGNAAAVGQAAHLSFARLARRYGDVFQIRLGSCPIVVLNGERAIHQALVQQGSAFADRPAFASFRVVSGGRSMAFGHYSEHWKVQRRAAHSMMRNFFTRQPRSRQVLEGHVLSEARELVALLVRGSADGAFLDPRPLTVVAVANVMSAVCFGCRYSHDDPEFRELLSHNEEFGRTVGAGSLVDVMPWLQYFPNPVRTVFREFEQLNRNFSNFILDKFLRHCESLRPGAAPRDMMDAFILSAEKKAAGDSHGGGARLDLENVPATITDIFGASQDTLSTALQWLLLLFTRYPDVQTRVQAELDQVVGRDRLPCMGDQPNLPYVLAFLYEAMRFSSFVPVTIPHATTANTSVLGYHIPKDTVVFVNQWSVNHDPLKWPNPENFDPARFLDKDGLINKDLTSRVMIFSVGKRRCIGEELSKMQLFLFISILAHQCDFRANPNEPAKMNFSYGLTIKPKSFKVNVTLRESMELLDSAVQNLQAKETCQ

With CCOC(=O)N[C@@H]1CC[C@@H]2[C@@H](C1)C[C@H]1C(=O)O[C@H](C)[C@H]1[C@H]2/C=C/c1ccc(-c2cccc(F)c2)cn1 [VORAPAXAR] the Drug metabolism (Liver microsome [1]) was “metabolite_detected”, the “inhibition (INH)” value [2] was 77% and the Drug metabolism (Liver microsome [3]) was “metabolite_not_detected”. For the same compound, the Drug metabolism (Liver microsome [4]) was “metabolite_not_detected”.
In the case of C[C@H]1OC(=O)[C@@H]2C[C@@H]3C[C@H](NC(=O)OCCO)CC[C@H]3[C@H](/C=C/c3ccc(-c4cccc(F)c4)cn3)[C@H]12, the Drug metabolism [5] is reported as “metabolite_detected”, the Drug metabolism (Cytochrome P450 2A6) is reported as “metabolite_detected” and the Drug metabolism (Cytochrome P450 4F2) is reported as “metabolite_detected”.
With CCOC(=O)N[C@@H]1CC[C@@H]2[C@@H](C1)C[C@H]1C(=O)O[C@H](C)[C@H]1[C@H]2/C=[14CH]/c1ccc(-c2cccc(F)c2)cn1 the Drug metabolism (Cytochrome P450 2C8) was “metabolite_detected”, the Km (Liver microsome [6]) was 23.5 µM and the Drug metabolism (Cytochrome P450 2B6) was “metabolite_not_detected”. For the same compound, the Drug metabolism (Cytochrome P450 1A2) was “metabolite_not_detected”, the Drug metabolism (Liver microsome [7]) was “metabolite_not_detected” and the Drug metabolism (Cytochrome P450 2C19) was “metabolite_detected”. For the same compound, the Drug metabolism (Cytochrome P450 4A11) was “metabolite_detected” and the Drug metabolism (Cytochrome P450 1B1) was “metabolite_detected”.

— ChEMBL document CHEMBL3526033, “Identification of human liver cytochrome P450 enzymes involved in the metabolism of SCH 530348 (Vorapaxar), a potent oral thrombin protease-activated receptor 1 antagonist” (Drug Metab Dispos, 2011)
